Experimental data: patent publication US8546430B2, “Thalidomide analogs” (P2D, Inc., priority 2003, dated 2013)
“Also recorded” adds a separate entry of the source.

What was measured:
3′-UTR of human TNF-α = assay: Luciferase reporter assay, RAW264.7 cells with vs without the TNF-α 3′-UTR; format: cell-based; conditions: mouse macrophage line RAW264.7, 16 h; FIG. 1
Experimental: To determine the involvement of the 3′-UTR in the action of the thalidomide analogs, their ability to inhibit reporter gene activity in cells containing the TNF-α3′-UTR versus a control vector was assessed. This cell-based assay utilized two stably transfected cell lines derived from the mouse macrophage line, RAW264.7. One line, designated “luciferase only” expressed a luciferase reporter construct without any UTR sequences. The other line, designated “luciferase+TNF-α UTR” expressed a luciferase reporter construct with the entire 3′-UTR of human TNF-α inserted directly downstream of the luciferase coding region. Compounds were added in a concentration-dependent manner, and at the end of the incubation period (16 h, 37° C., 5% CO2) the media was removed, cells were lysed and luciferase activity was assayed with Steady-glo luciferase assay reagent (Promega) according to the supplier's directions. Background was subtracted and data from this assay was expressed as a ratio of the +3′-UTR to −3′-UTR (control) values, and was expressed as a percent as shown in FIG. 1. In this manner, compounds that show a differential effect on the two cell lines, with and without a 3′-UTR, are highlighted. […] All agents lowered luciferase reporter activity in cells stably expressing the 3′-UTR.

PBMC = assay: Cellular viability of PBMCs by MTS assay; format: cell-based, human
Experimental: (§1) The action of the these thiothalidomide analogs in inhibiting TNF-α secretion was assessed in human peripheral blood mononuclear cells (PBMC) and the results are shown in Table 1. Freshly prepared PBMCs were utilized in all studies. Blood, 40 ml, was drawn from a volunteer, immediately mixed with 50 U/ml Na heparin and was diluted to 50 ml total volume with sterile PBS. Samples, 20 ml, of this preparation then were layered on 20 ml Ficoll-Paque and were centrifuged (800 g, 20 min). The Ficoll/serum interface, containing PBMCs, was collected, diluted to 200 ml with PBS, and then was centrifuged (800 g, 15 min) to pellet the cells. Thereafter, the recovered pellet was re-suspended in 37° C. tissue culture medium (RPMI/1 mM Sodium pyruvate/10% heat inactivated FBS/2 mM Glutamax) and placed on ice. Recovered cells were counted, pipetted (200 ul of 5×10^5/ml) into 96 well plates, and incubated for an hour (37° C., 5% CO2). Thereafter, appropriate concentrations of test compounds or vehicle (10 ul DMSO) were added to duplicate wells. Following a further hour of incubation, a 10 ul sample of lipopolysaccharide (LPS) (100 ng/ml in supplemented medium) or vehicle was added to induce stimulated and unstimulated cells, respectively, and the cells were incubated overnight. Sixteen hours later, supernatants were collected for quantification of TNF-α levels by ELISA assay (Pierce-Endogen human TNF-α mini kit, Rockford, Ill.) and the use of specific capture and detection monoclonal antibodies, M303E and M302B (Pierce-Endogen), respectively. ELISA plates were read at λ=450 nm and TNF-α levels were determined from a six-point calibration curve that was run concurrently with the test samples. The effect of test drug concentrations on the cellular viability of PBMCs was assessed by MTS assay (Promega, Madison, Wis.) of the cells that provided the supernatant samples assayed for TNF-α levels, described above. It should be understood that this method can be used to test any of the disclosed compounds as a screening assay for readily determining their TNF-α modulating activity, and for selecting them for use in the disclosed method of treating a subject.

TNF-α = assay: Inhibition of LPS-induced TNF-α secretion in human PBMC (ELISA); format: cell-based; conditions: for IC50 / inhibition at 30 µM: Homo sapiens, LPS-induced TNF-α production in PBMC; for TNF-α inhibitory activity (in words): LPS-stimulated PBMC; for Fold more active than thalidomide 201: inhibition of TNF-α synthesis, from IC50 values
Experimental: as §1

rat aortic ring = assay: Rat aortic ring microvessel growth assay; format: cell-based; conditions: 0.1-20 μg/ml daily for 4 days; FIGS. 2-11
Experimental: The angiogenesis modulating activity of representative compounds was assessed in a rat aortic ring microvessel growth assay. Briefly, twelve-well tissue culture plates were coated with 250 μl of Matrigel (Becton-Dickinson, Bedford, Mass.) and allowed to gel for 30 min at 37° C. and 5% CO2. Thoracic aortas were excised from 8- to 10-week-old male Sprague Dawley rats. After careful removal of fibroadipose tissues, the aortas were cut into 1-mm-long cross-sections, placed on Matrigel-coated wells, and covered with an additional 250 μl of Matrigel. After the second layer of Matrigel had set, the rings were covered with EGM-II and incubated overnight at 37° C. and 5% CO2. EGM-II consists of endothelial cell basal medium (EBM-II; Clonetics, San Diego, Calif.) plus endothelial cell growth factors provided as the EGM-II Bulletkit (Clonetics). The culture medium was subsequently changed to EBM-II supplemented with 2% fetal bovine serum, 0.25 μg/ml amphotericin B, and 10 μg/ml gentamicin. Aortic rings were treated daily with either the vehicle (0.5% DMSO), carboxyamidotriazole (CAI, 12 μg/ml), thalidomide or thalidomide analogs (0.1-20 μg/ml) for 4 days and photographed on the 5th day using a ×2.5 objective. CAI, a known antiangiogenic agent, was used at higher than clinically achievable concentration as a positive control. Experiments were repeated four times using aortas from four different rats. The area of angiogenic sprouting, reported in square pixels, was quantified using Adobe PhotoShop. Further details of the method are provided in Luzzio et al., J Med Chem.; 46:3793-9, 2003, which is incorporated by reference herein. It should be understood that this method can be used as an assay to rapidly select compounds having a desired angiogenic or anti-angiogenic effect, for example, for use in the disclosed methods of treating a subject.

IC50 (TNF-α) [µM] | melting point [°C] | SMILES | Luciferase reporter activity, +3′-UTR versus −3′-UTR cells (in words) (3′-UTR of human TNF-α) | Toxicity / cytotoxicity (in words) (PBMC) | Cell viability at 0.3 μM (PBMC) [%] | Cell viability at 3 μM (PBMC) [%] | Cell viability at 30 μM (PBMC) [%] | inhibition at 30 µM (TNF-α; 30 μM) [%] | TNF-α inhibitory activity (in words) (TNF-α) | Angiogenic modulating activity (in words) (rat aortic ring) | Fold more active than thalidomide 201 (TNF-α) | Inhibition of TNF-α secretion at 30 μM (in words) (TNF-α; 30 μM) | Concentration required for significant activity (TNF-α; inhibition of TNF-α secretion) [µM]
11 |  | O=C1NC(=S)CCC1N1C(=O)c2ccccc2C1=S (centres unmarked) [Compound 215, 2,3-dihydro-3-thioxo-2-(2-oxo-6-thioxo-3-piperidinyl)-1H-isoindol-1-one] | differential effect on the two cell lines in a dose-dependent manner | without toxicity | 94 | 87 | > 100 | 61 | potently inhibited TNF-α secretion |  |  |  | 
6 |  | O=C1c2ccccc2C(=S)N1C1CCC(=S)NC1=S (centres unmarked) [Compound 216, 2,3-Dihydro-3-thioxo-2-(2,6-dithioxo-3-piperidinyl)-1H-isoindol-1-one] | differential effect on the two cell lines in a dose-dependent manner | without accompanying toxicity | 90 | 86 | 94 | 79 | potently inhibited TNF-α secretion | potent anti-antigiogenic activity at higher concentrations and angiogenic activity at lower concentrations | over 30 fold |  | 
~200 |  | O=C1CCC(N2C(=O)c3ccccc3C2=O)C(=O)N1 (centres unmarked) [Compound 201, Thalidomide] | lacked activity at 50 μM |  |  |  |  |  |  |  |  | entirely lacked activity | 100
8 | 103 | S=C1CCCC(=S)N1 [Compound 219, 2,6-Piperidinedithione] | differential effect on the two cell lines in a dose-dependent manner | lack of toxicity; also recorded: without toxicity | 99 | 98 | > 100 | 75 | potent inhibitory effect; also recorded: potently inhibited TNF-α secretion |  | 25 fold |  | 
